From patent publication US20070197591A1, “USE OF PALIPERIDONE FOR THE TREATMENT OF A MENTAL DISORDER IN A PSYCHIATRIC PATIENT WITH REDUCED HEPATIC FUNCTION” (priority 2005, published 2007)

Assay: clinical
Parameters: species or system human
Conditions: in vivo
Description: Objectives: to investigate the metabolic pathways of paliperidone and excretion of paliperidone and its metabolites in healthy adult male subjects, both CYP2D6 poor and extensive metabolizers, after administration of a single 1-mg oral dose of ^14C-paliperidone. In addition, to evaluate the safety and tolerability of paliperidone, as well as the relationship between genotypes (CYP2D6, CYP3A4, CYP3A5, UGT1A1, and UGT1A6) and exposure to paliperidone and its metabolites.
Methodology: Single-center, single-dose open-label study of the absorption, metabolism, and excretion (AME) of paliperidone in healthy men (3 extensive and 3 poor metabolizers based on CPY2D6 phenotype). […] Each subject received a single oral dose of ^14C-paliperidone with total radioactivity below […] (16 μCi). Blood samples for plasma pharmacokinetic profile were obtained immediately before study drug administration and 0.5, 1, 1.5, 3, 6, 12, 16, 36, 48, 72, 96, 120, 144 and 168 hours postdose. Blood samples were obtained 2, 4, 8, and 24 hours postdose for determination of ^14C in whole blood. Samples for determination of serum creatinine were obtained 2, 4, 8, and 24 hours postdose. Urine was collected immediately prior to drug administration and from 0-4, 4-8, 8-12, 12-16, 16-24, 24-36, 36-48, 48-72, 96-120, 120-144, and 144-168 hours after study drug administration. Fecal samples were colleted per each stool, once before study drug administration and in the period from 0-168 hours after study drug administration. Collections of urine and feces (per 24 hours) were to continue beyond 168 hours, to a maximum of 336 hours (Day 15) for subjects who excrete radioactivity slowly (2 latest 24-hour urine collections each >2% of total radioactive dose) or have <7 feces stool samples over the 0 to 168-hour period. ^14C radioactivity was measured in plasma, urine, and feces. Aliquots of the 0- through 24-hour urine collections were analyzed for cretinine. Plasma concentrations of paliperidone and risperidone were determined by means of a validated LC-MS/MS method. The ^14C-labeled moiety in plasma and urine was determined by liquid scintillation counting. For all plasma samples, the lower limits of quantification for paliperidone and risperidone were 0.100 ng/mL. For all plasma and urine samples the lower limits of quantification for ^14C-palieridone was 72 dpm/mL (=2.0 n g-eq/mL).
Number of Subjects (Planned and Analyzed): Six healthy men, 3 extensive and 3 poor metabolizers based on CYP2D6 phenotype were to participate in the study. Five subjects, 3 extensive and 2 poor metabolizers, received a single dose of ^14C-paliperidone, completed the study (i.e., completed all assessments through Day 8) and were considered valuable for safety (the Safety Analysis Set), as well as for pharmacokinetics.
Test Product, Dose and Mode of Administration Batch No.: Single oral 0.988-mg dose of ^14C-paliperidone, oral solution (aqueous formulation at a final concentration of 0.0984 mg/mL). Batch No.: unlabeled paliperidone oral solution: ZR076477EIA031 (manufacturing date: 23 Apr. 2003, retest date: 23 Oct. 2004): ^14C-paliperidone: 1763 (expiration date: not applicable)
Criteria for Evaluation: Pharmacokinetics: Plasma paliperidone. ^14C radioactivity and metabolite profiles were determined. Plasma Cmax, tmax, AUClast, AUC24, AUC∞, λZ, t1/2term, CL/F of ^14C and paliperidone were estimated by non-compartmental analysis. Based on the individual urine excretion data and on the serum creatinine concentrations, Ae, Ae, % dose, CLR, CLR,24h and CLer and paliperidone and CLGFR, and CLact of paliperidone were estimated. The excretion half-life of ^14C in urine was also estimated based on excretion rate-time profiles.
Statistical Methods: Pharmacokinetics: Plasma concentrations of ^14C and paliperdone as well as estimates for pharmacokinetic parameters were listed and graphically presented, and the excretion analysis of total radioactivity in plasma, urine and feces were summarized. […]

effect of genotype (CYP2D6, UGT1A1 or UGT1A6) on the plasma exposure of TR and UD: No effect of genotype
share of UD excreted by means of filtration (male, human): About 50%
CL renal (male, human, CLR): 53.1 ± 9.47 mL/min
Tmax (male, human, po): 1.33 ± 0.289 h
cumulative urinary excretion of unchanged paliperidone (male, human, po, 7 days): 59%
AUC (male, human, po, AUC24): 111 ± 22 ng·h/mL
AUC(0-inf) (male, human, po, AUC∞): 187 ng·h/mL
Cmax (male, human, po, Cmax): 8.85 ng/mL
Tmax (male, human, po, tmax): 1.3 h
SMILES: Cc1nc2n(c(=O)c1CCN1CCC(c3noc4cc(F)ccc34)CC1)CCCC2O (stereo not drawn) [Paliperidone, paliperidone]
